Test results from PMC2880193 (Archives of biochemistry and biophysics, 2010).

Molecular target: T1, Put1p (Put1pΔ18) (Saccharomyces cerevisiae, UniProt P09368)
T1 sequence (P09368 19-476): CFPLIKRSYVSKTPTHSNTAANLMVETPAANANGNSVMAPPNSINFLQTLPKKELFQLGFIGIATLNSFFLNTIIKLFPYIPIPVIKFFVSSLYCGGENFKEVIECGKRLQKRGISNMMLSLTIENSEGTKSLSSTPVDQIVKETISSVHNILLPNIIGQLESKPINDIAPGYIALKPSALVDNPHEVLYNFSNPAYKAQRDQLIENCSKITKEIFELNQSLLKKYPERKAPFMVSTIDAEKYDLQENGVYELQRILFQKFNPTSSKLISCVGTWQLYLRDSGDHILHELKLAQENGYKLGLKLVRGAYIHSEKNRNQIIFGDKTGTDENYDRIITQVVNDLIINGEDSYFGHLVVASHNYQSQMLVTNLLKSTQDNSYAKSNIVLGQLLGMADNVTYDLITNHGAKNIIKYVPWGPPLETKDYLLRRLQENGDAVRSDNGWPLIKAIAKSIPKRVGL
Assay: proline:DCPIP assay, Lineweaver-Burk plot
Format: biochemical

- Ki: 5.3 mM
SMILES: O=C(O)[C@@H]1CCCO1 [L-THFA]
